Tests used:
[1] = patients, recent studies; cited from earlier work
[2] = test system: osteoarthritis of both knees; assay: Oral administration to a subject with osteoarthritis of both knees, relief of knee pain and adverse reactions; type: in vivo, human; details: earlier treatment
Description: The subject took an oral dose of 100 mg N—(O-acetylsalicyl)-L-tyrosine ethyl ester.
Subject, weight 90 kg, had 4 year history of osteoarthritis of both knees which was confirmed by X-ray and MRI showing diminished articular space. Symptoms of pain upon walking and at rest, as well as tenderness to palpation, had been consistently present, varying in intensity from moderate to severe.
[…] […] The subject did intensive physical activities during the next 10 hours that consisted of farming manual labor that included climbing up and down the banks of a pond to cut off cattail weeds at root level, and manually carrying stalks up the pond bank to level ground. Other physical exertions included numerous mounting and demounting from a farm tractor that pulled a trailer containing cattail weeds to dumping sites.

[3] = nonsteroidal anti-inflammatory agents

SMILES | rates of heart attack (cardiac arrest) versus the control group [1] | relief of osteoarthritis symptoms (subject's history) [2, 3] | further results
Cc1ccc(-c2cc(C(F)(F)F)nn2-c2ccc(S(N)(=O)=O)cc2)cc1 [celecoxib] | higher rates of heart attack |  | 
CC(C)Cc1ccc(C(C)C(=O)O)cc1 (centres unmarked) [ibuprofen] |  | had not been relieved | 
COc1ccc2cc([C@H](C)C(=O)O)ccc2c1 [naproxen] |  | had not been relieved | 
C[C@]12C=CC(=O)C=C1CC[C@@H]1[C@@H]2C(=O)C[C@@]2(C)[C@H]1CC[C@]2(O)C(=O)CO [prednisone] |  |  | relief of osteoarthritis symptoms (subject's history) ([2]; oral, 10-30 mg daily): relieved incompletely
CS(=O)(=O)c1ccc(C2=C(c3ccccc3)C(=O)OC2)cc1 [rofecoxib, Rofecoxib] | higher rates of heart attack |  | 

Reference: patent US20060166901A1, “Compositions comprising O-acetylsalicyl derivatives of aminocarbohydrates and amino acids” (priority 2005, published 2006)
